Data from patent publication US10660910B2, “Use of sedoheptulose for prevention or treatment of inflammation” (C7 SUGAR GMBH, priority 2013, dated 2020).

Tested on: primary human adipocytes
Assay: Human adipocyte culture in GF or GFS media, gene expression by RT-PCR
Assay type: cell-based
Method: Stromal vascular fraction cells (SVFs) from subcutaneous white adipose tissue of a patient undergoing abdominal surgery were isolated as described before (Lindroos et al, Cell Metab. (2013), July 2; 18(1):62-74.). Briefly, adipose tissue was digested with Collagenase II (Worthington) and filtered. SVFs were separated from mature adipocytes by centrifugation, followed by the lysis of erythrocytes in the SVF-fraction (Buffer EL, Qiagen). The purified SVFs were cultured in DMEM/F12, 10% FBS (Gibco, Life Technologies). As soon as the cells reached confluence, they were washed with DMEM/F12 w/o glucose (Biowest) and the medium was replaced by DMEM/F12 with a total carbohydrate load of 3 g/L, containing 1.5 g/L glucose and fructose or 1 g/L each of glucose, fructose, and sedoheptulose, respectively. Two days after confluence (day 0), differentiation was induced by adding 1 μM dexamethasone, 1.74 μM insulin, 5 μM troglitazone, […], 17 μM pantothenic acid and 33 μM biotin. After two days, IBMX and dexamethasone were omitted, while insulin and troglitazone were removed on day 4. 50% of the medium was replaced on day 6. Two days later, the cells were harvested for RNA isolation (RNeasy mini kit, Qiagen).
Briefly, total RNA was extracted and reverse-transcribed using commercial kits (QIAGEN, Applied Biosystems). Quantitative real-time PCRs were performed on an AbiPRISM 7900HT real-time cycler using iTaq SYBR Green Supermix with ROX (BioRad) to measure CARKL, adiponectin, UCP-1, TNFa, IL-6, MCP-1, and beta-actin expression as previously described (Haschemi et al., Cell Metab. 15 (2012), 813-826). Expression of target gene was normalized to beta-actin expression. Relative expression of target gene was calculated by the delta-delta CT method.

sedoheptulose kinase CARKL mRNA expression (GFS media (1 g/L each glucose, fructose, sedoheptulose) vs GF (1.5 g/L each), eight days differentiation, FIG. 3A): increase
Structure (SMILES): O=C(CO)[C@@H](O)[C@H](O)[C@H](O)[C@H](O)CO [sedoheptulose, Sedoheptulose]
adiponectin expression (GFS vs GF treated cells, eight days, FIG. 3B): increase
UCP-1 expression (GFS vs GF treated cells, eight days, FIG. 3C): increase
